Test [1] is described as follows: Superoxide Radical Absorbance Capacity (SORAC) assay. Also on record: key: None: No detectable value. In kind it is biochemical. The conditions noted are these: in tubo, WST-1 probe. The method, then: (§1) In tubo antioxidant testing was carried out to determine the antioxidant profile of antioxidants that boost UVA photo-protection.
The Superoxide Radical Absorbance Capacity (SORAC) assay is an in tubo method to determine the relative capacity of an antioxidant to dismutate the superoxide anion. The Varioskan Flash is employed to measure the superoxide dismutase-catalyzed dismutation of the superoxide anion in the presence of the absorbance probe, water-soluble tetrazolium salt (WST-1). WST-Formazan is produced when WST-1 is […] by superoxide anion that is generated by the mixture of xanthine and xanthine oxidase. One unit of SOD activity is defined as the quantity of antioxidant to obtain 50% inhibition of the rate of reduction of WST-1. The final SORAC value is expressed as one unit of SOD activity per milligram of dry weight of antioxidant material at 50% inhibition (Unit/mg).

Test [2] in a line: Oxygen Radical Absorbance Capacity (ORAC) assay. The format is biochemical. The conditions noted are these: in tubo, Trolox standard. The method, then:
as §1
The Oxygen Radical Absorbance Capacity (ORAC) assay is one of most commonly used methods to evaluate the capacity of antioxidants against ROS (reactive oxygen species), specific for peroxyl which is one of the most important free radicals present in the human skin environment. The ORAC assay measures the oxidative degradation of the fluorescent probe (fluorescein) after being mixed with free radical generators such as azo-initiator compounds (2,2′-Azobis(2-amidinopropane) dihydrochloride, AAPH). Azo-initiators produce the peroxyl radical by heating, which damages the fluorescent molecule, resulting in the loss of fluorescence. Antioxidants protect the fluorescent molecule from the oxidative degeneration. By quantifying the decay of fluorescence using a fluorometer, the degree of protection is determined comparing with a standard control antioxidant Trolox. The result is expressed in mol equivalent of Trolox per gram of sample (i.e., μmol TE/g). Equipment that can automatically measure and calculate the capacity is commercially available, such as the VarioSkan flash microplate reader from Thermo Scientific. To test samples for ORAC, compounds are dissolved into water-based NaH2PO4 buffer.

Test [3] in a line: In vivo PPD: UVPPD PF according to ISO 24442. The conditions noted are these: conclusion in words from PPD data of Examples 2 and 3. The method, then: To characterize protection from UVA radiation, the PPD (Persistent Pigment Darkening) method, which measures the color of the skin observed 2 to 4 hours after exposure of the skin to UVA radiation, is used. This method was adopted in 1996 by the Japanese Cosmetic Industry Association (JCIA) as the official test procedure for the UVA labelling of products and is commonly used in industry, especially in Europe and the United States. See JAPAN COSMETIC […] ASSOCIATION TECHNICAL BULLETIN, Measurement Standards for UVA Protection Efficacy. Issued Nov. 21, 1995 and effective of Jan. 1, 1996), which is incorporated herein by reference in its entirety. […]
The degree of UVA protection provided by each of the formulations was determined in terms of UVPPD PF. […]
The UVPPD PF for each of sunscreen formulations A, B, and C was determined according to ISO 24442, which was adopted by the Japan Cosmetic Industry Association in 2012 for characterization of UVA protection and is incorporated herein by reference in its entirety. […] UVA radiation can be monitored continuously during exposure using a Model DCS-1 Sunburn UV Meter/Dose Controller System (Solar Light Co.), formerly known as the Robertson-Berger Sunburn meter (R-B meter). […] The MPPD of unprotected skin is determined under standardized lighting conditions 2 to 4 hours after exposures. […]

Test [4] is described as follows: Hydroxyl Radical Absorbance Capacity (HORAC) assay. The format is biochemical. Conditions: in tubo, Gallic Acid standard. How it is done: as §1
The HORAC assay is another common method to examine antioxidant activity. It is specific for hydroxyl radicals. The Varioskan Flash is employed for the quantification of the capacity of an antioxidant to avert the hydroxyl radical. The hydroxyl radical, generated from hydrogen peroxide and Cobalt (II) fluoride, will quench a fluorescent probe by a hydrogen atom transfer reaction. In the presence of an antioxidant, however, the molecule will chelate the Co(II), preventing the generation of the hydroxyl radical and initially block or prevent the quenching of the probe, causing a delay in the fluorescence decay profile. The area under the fluorescence decay curves for samples with and without the presence of an antioxidant molecule are compared to that of a standard reference material and the hydroxyl radical averting capacity is determined. By quantifying the decay of fluorescence using a fluorometer, the degree of protection is determined by comparison with a standard control antioxidant Gallic Acid (standard reference material). The result is expressed in μmol equivalent of Gallic Acid per gram of sample (i.e., μmol GAE/g). Equipment that can automatically measure and calculate the capacity is commercially available, such as the VarioSkan flash microplate reader from Thermo Scientific. To test samples by using HORAC, compounds are dissolved into water-based NaH2PO4 buffer.

The results in this text go back to patent publication US10729633B2, “Methods for boosting UVA photo-protection using antioxidants” (L'OREAL, priority 2018, dated 2020).

In the case of `O=C(O)[C@H]1O[C@@H](Oc2cc3oc(-c4ccccc4)cc(=O)c3c(O)c2O)[C@H](O)[C@@H](O)[C@@H]1O` [Baicalin, reference compound], the SORAC-superoxide result in test [1] is recorded as “Medium (200-1000)”. In test [2], the ORAC-peroxyl result was “Medium (4500-10000)”. Further, in test [3], the “boosting effect on UVA photo-protection” value was “did not boost UVA photo-protection”. Also, the HORAC-hydroxyl entry in test [4] is “Weak (<2600)”.

As to `COc1cc(/C=C/C(=O)O)ccc1O` [Ferulic acid], in test [1], the SORAC-superoxide entry is “Weak (<200)”. Moreover, the ORAC-peroxyl entry in test [2] is on record as “Strong (>10000)”. Also, the HORAC-hydroxyl result in test [4] was “Strong (>10000)”.

In the case of `O=C(CCc1ccc(O)cc1)c1c(O)cc(O)cc1O` [Phloretin], in test [1], the SORAC-superoxide result is on record as “None”. Besides, the ORAC-peroxyl entry in test [2] is “Strong (>10000)”. For the same compound, the HORAC-hydroxyl result in test [4] is on record as “Medium (2600-10000)”.

As to `OC[C@H]1O[C@@H](Oc2cc(O)cc(/C=C/c3ccc(O)cc3)c2)[C@H](O)[C@@H](O)[C@@H]1O` [Polydatin], the SORAC-superoxide result in test [1] is “None”. In test [2], the ORAC-peroxyl entry is reported as “Strong (>10000)”. Moreover, in test [4], the HORAC-hydroxyl entry is reported as “Strong (>10000)”.
